Drawing on patent publication US20250195484A1, “CEREBLON LIGANDS AND USES THEREOF” (priority 2022, published 2025), this text covers Dmax, DC50 and IC50 for 8 molecules.

For one experiment, the target named is T1, androgen receptor (AR) (Homo sapiens, UniProt P10275).
T1 construct: endogenous in cells
T1 sequence (P10275 1-920): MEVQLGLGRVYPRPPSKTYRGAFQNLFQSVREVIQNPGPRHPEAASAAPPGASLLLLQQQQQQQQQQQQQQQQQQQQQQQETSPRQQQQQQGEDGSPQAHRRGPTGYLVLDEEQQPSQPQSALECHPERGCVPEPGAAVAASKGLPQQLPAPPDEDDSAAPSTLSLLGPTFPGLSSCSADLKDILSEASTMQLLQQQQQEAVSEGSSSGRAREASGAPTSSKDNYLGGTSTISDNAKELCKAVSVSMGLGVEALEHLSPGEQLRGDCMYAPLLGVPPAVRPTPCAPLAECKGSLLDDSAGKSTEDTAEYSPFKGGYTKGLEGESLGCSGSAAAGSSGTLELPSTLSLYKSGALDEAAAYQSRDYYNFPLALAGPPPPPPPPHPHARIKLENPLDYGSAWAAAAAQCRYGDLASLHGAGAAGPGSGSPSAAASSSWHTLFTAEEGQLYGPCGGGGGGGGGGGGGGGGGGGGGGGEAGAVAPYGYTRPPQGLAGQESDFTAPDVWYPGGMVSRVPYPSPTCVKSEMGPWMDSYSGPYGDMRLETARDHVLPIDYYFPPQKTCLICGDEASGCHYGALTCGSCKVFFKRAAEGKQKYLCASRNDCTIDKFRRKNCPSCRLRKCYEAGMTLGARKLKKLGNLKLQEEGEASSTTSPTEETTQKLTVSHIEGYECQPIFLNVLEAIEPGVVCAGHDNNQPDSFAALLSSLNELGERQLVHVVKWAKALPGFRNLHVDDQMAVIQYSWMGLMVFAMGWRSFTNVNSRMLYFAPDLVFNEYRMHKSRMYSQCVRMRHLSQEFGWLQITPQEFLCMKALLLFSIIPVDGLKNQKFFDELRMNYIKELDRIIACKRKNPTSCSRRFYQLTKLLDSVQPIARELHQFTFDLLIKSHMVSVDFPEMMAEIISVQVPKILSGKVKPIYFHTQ
The experiment is described as follows: Androgen receptor degradation, western blot. It counts as cell-based. Particulars: AR degradation potency, cell line not stated. The procedure:
Western blot analysis was performed essentially as described previously. The cells treated with indicated compounds were lysed in Radioimmunoprecipitation Assay Protein Lysis and Extraction Buffer (25 mmol/L Tris.HCl, pH 7.6, 150 mmol/L NaCl, 1% Nonidet P-40, 1% sodium deoxycholate, and 0.1% sodium dodecyl sulfate) containing proteinase inhibitor cocktail (Roche Diagnostics, Mannheim, Germany). Equal amounts of total protein were electrophoresed through 10% SDS-polyacrylamide gels after determination of protein concentration by BCA assay (Fisher Scientific, Pittsburgh, PA). The separated protein bands were transferred onto PVDF membranes (GE Healthcare Life Sciences, Marlborough, MA) and blotted against different antibodies, as indicated. The blots were scanned, and the band intensities were quantified using GelQuant.NET software provided by biochemlabsolutions.com. The relative mean intensity of target proteins was expressed after normalization to the intensity of glyceraldehyde-3-phosphate dehydrogenase bands.

The target of the next experiment is T2, BRD9 (Homo sapiens, UniProt Q9H8M2).
T2 construct: endogenous in cells; host or cells: HEK293 (CRISPR HiBiT knock-in)
The experiment is described as follows: BRD9 HiBiT assay for protein degradation (HEK293 CRISPR knock-in). Particulars: for Dmax: HEK293, read-out: BRD9 HEK293 HiBit Dmax; for DC50: HEK293 CRISPR knock-in cells, 6 hrs. It counts as cell-based. The procedure: HiBiT Assay for protein degradation:
The HiBit assay was performed using engineered HEK293 CRISPR knock-in cell utilizing the Nano-Glo HiBiT Lytic Detection System from Promega, Cat #N3040. Compounds were transferred, 25 nL DMSO or test compounds (final DMSO @ 0.1%) to intermediate plates (Corning3570) using ECHO550. Cells were seeded onto compounds at 2000 cells/25 μL/well and incubated for 6 hrs in tissue culture incubator at 37° C. and 5% CO2. The LgBiT Protein was diluted at 1:100 and the Nano-Glo® HiBiT Lytic Substrate 1:50 into an appropriate volume of room temperature using the Nano-Glo® HiBiT Lytic Buffer. At end of compound incubation time 15 ul of the detection reagent was added to each well (without LgBiT for negative control wells) using the Thermo Scientific multidrop combi. The plate was shaken for 10 mins at RT using Combi. After brief centrifugation (2000 rpm 1 mins), plate was read on Envision (Ultrasensitive luminescence model).

For experiment [1], the target named is GST-tagged wild-type human CRBN protein (Homo sapiens, UniProt Q96SW2). The experiment is described as follows: biochemical.
Protocol: The binding to cereblon (CRBN) was determined using the Cereblon Binding Kit (Cisbio, #64BDCRBNPEG) following the manufacturer's instruction. Briefly, serially diluted compounds were incubated with GST-tagged wild-type human CRBN protein, XL665-labelled Thalidomide and Europium Cryptate labelled GST antibody at room temperature for about 3 hours.
The test system of the next experiment is SU-DHL-1. The experiment is described as follows: Cell viability assay (CellTiter-Glo 2.0), SU-DHL-1. As to conditions: Homo sapiens, 96 h; SU-DHL-1 cells, 4 days. It counts as cell-based. The procedure:
SU-DHL-1 and SUP-M2 cell viability was determined by CellTiter-Glo 2.0 Cell Viability Assay (Promega). […] In a typical procedure, cells seeded at 1000 cells per well in 384-well white plates (Corning) were incubated with serially diluted compounds for 4 days at 37° C. with 5% CO2. At the end of treatment, CellTiter-Glo 2.0 was added to the wells and luminescence was acquired on TECAN PSARK plate reader. Untreated cells were used as control. Data points were fit with a four-parameter equation to generate a concentration-response curve. IC50 values were calculated using a nonlinear regression analysis of the mean±SD from triplicate.

The target of the next experiment is T3, STAT3 (Homo sapiens, UniProt P40763).
T3 construct: host or cells: HeLa (STAT3-HiBiT CRISPR knock-in clone)
The experiment is described as follows: STAT3 degradation HiBiT assay (STAT3-HIBIT KI HeLa). It counts as cell-based. As to conditions: STAT3-HIBIT KI HeLa cells, 24 hours. The procedure: STAT3-HIBIT KI HeLa cell line was purchased from Promega. This cell line is a clone created by using CRISPR-Cas9 to fuse HiBIT to the 3′ end of STAT3 in HeLa cells. DMEM medium and FBS were purchased from Gibco/Thermo Fisher Scientific. STAT3 degradation was determined based on quantification of luminescent signal using Nano-Glo HiBIT Lytic Detection System. In a typical procedure, cells seeded at 20000 cells per well in 96-well white plates (Corning) were incubated with serially diluted compounds for 24 hours at 37° C. with 5% CO2. At the end of treatment, Nano-Glo HiBIT Lytic Detection reagents was added to the wells and luminescence was acquired on TECAN PSARK plate reader. Untreated cells were used as control. Data points were fit with a four-parameter equation to generate a concentration-response curve. IC50 values were calculated using a nonlinear regression analysis of the mean±SD from triplicate.

A further experiment deals with MOLM-16. The experiment is described as follows: Cell viability assay (CellTiter-Glo 2.0), MOLM-16. The format is cell-based. Particulars: MOLM16; MOLM-16 cells.

T2 sequence (Q9H8M2 whole entry): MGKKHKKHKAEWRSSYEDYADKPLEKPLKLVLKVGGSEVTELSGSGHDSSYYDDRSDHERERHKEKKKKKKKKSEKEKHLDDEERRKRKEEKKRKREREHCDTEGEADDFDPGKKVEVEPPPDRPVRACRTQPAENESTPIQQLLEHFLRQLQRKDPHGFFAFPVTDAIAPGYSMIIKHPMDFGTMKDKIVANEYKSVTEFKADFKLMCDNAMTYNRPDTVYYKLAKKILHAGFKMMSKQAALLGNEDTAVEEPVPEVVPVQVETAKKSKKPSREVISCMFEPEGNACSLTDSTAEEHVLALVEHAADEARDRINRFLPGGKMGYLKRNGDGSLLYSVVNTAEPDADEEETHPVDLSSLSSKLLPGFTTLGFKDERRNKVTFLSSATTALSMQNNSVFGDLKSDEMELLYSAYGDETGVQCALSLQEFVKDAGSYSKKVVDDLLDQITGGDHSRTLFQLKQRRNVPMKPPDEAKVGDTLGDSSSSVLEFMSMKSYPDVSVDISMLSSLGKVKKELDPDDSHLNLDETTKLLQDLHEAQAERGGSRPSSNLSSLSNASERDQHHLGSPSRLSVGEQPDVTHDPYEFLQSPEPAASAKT
T3 sequence (P40763 whole entry): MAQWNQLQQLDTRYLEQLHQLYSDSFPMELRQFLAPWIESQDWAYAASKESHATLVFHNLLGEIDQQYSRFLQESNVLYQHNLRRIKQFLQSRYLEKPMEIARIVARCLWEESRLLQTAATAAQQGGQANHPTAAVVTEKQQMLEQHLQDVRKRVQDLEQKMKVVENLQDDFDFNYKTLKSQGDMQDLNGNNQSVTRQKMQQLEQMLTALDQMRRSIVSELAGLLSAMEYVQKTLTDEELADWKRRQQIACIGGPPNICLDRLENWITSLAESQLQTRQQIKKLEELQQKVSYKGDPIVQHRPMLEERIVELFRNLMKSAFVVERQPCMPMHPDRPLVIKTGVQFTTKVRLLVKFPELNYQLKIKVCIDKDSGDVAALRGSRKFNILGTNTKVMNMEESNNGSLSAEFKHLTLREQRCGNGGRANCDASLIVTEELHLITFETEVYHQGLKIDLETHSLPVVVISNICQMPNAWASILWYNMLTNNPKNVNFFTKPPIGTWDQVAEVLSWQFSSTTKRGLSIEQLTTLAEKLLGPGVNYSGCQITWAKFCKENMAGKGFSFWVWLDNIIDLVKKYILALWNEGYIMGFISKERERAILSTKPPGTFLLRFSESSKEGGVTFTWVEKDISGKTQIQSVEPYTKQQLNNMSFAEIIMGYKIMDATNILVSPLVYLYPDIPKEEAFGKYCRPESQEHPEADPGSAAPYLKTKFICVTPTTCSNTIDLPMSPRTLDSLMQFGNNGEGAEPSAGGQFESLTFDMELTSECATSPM
Sequence of GST-tagged wild-type human CRBN protein (Q96SW2 whole entry): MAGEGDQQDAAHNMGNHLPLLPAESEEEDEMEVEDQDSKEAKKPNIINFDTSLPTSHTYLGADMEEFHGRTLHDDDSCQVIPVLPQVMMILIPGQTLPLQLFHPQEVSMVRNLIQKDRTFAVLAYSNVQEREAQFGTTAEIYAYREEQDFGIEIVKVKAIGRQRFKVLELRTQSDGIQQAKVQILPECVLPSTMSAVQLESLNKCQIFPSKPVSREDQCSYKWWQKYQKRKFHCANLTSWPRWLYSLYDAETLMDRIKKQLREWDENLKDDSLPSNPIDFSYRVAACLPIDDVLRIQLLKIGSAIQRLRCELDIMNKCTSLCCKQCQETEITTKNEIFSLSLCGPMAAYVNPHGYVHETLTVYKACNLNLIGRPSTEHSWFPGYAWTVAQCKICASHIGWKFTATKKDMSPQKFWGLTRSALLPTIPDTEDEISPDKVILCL

With `C[C@H]1CC2(CCN(c3ccc(C(=O)N4CCC(CN5CCC6(CC5)COc5c6ccc6c5CN([C@H]5CCC(=O)NC5=O)C6=O)CC4)cc3)CC2)CN1c1ccc(C#N)c(Cl)c1` [ARD-1, 2-chloro-4-((S)-8-(4-(4-((7-((S)-2,6-dioxopiperidin-3-yl)-6-oxo-7,8-dihydro-2H,6H-spiro[furo[2,3-e]isoindole-3,4′-piperidin]-1′-yl)methyl)piperidine-1-carbonyl)phenyl)-3-methyl-2,8-diazaspiro[4.5]decan-2-yl)benzonitrile], the Dmax at androgen receptor (AR) is more than 75%.

Regarding `C[C@@H]1N(c2ccc(C#N)c(Cl)c2)CCC12CCN(c1ccc(C(=O)N3CCC(CN4CCC5(CC4)COc4c5ccc5c4CN([C@H]4CCC(=O)NC4=O)C5=O)CC3)cc1)CC2` [ARD-2], the Dmax at androgen receptor (AR) is more than 75%.

Take `N#Cc1ccc(O[C@H]2CC[C@H](NC(=O)c3ccc(N4CCC(CN5CCC6(CC5)COc5c6ccc6c5CN([C@H]5CCC(=O)NC5=O)C6=O)CC4)nn3)CC2)cc1Cl` [ARD-3, N-((1r,4r)-4-(3-chloro-4-cyanophenoxy)cyclohexyl)-6-(4-((7-((S)-2,6-dioxopiperidin-3-yl)-6-oxo-7,8-dihydro-2H,6H-spiro[furo[2,3-e]isoindole-3,4′-piperidin]-1′-yl)methyl)piperidin-1-yl)pyridazine-3-carboxamide]: the Dmax on androgen receptor (AR) was more than 75%.

`CN(c1ccc(C#N)c(Cl)c1)[C@H]1CC[C@H](NC(=O)c2ccc(N3CCC(CN4CCC5(CC4)COc4c5ccc5c4CN([C@H]4CCC(=O)NC4=O)C5=O)CC3)nn2)CC1` [ARD-4, N-((1r,4r)-4-((3-chloro-4-cyanophenyl)(methyl)amino)cyclohexyl)-6-(4-((7-((S)-2,6-dioxopiperidin-3-yl)-6-oxo-7,8-dihydro-2H,6H-spiro[furo[2,3-e]isoindole-3,4′-piperidin]-1′-yl)methyl)piperidin-1-yl)pyridazine-3-carboxamide] had a Dmax on androgen receptor (AR) of more than 75%.

For `COc1cc(-c2cn(C)c(=O)c3cnc(N4CCC4)cc23)cc(OC)c1C(=O)N1CCC2(CCC(CN3CCC4(CC3)COc3c4ccc4c3CN(C3CCC(=O)NC3=O)C4=O)CC2)CC1` (stereo not shown) [BRD-1, 3-(1′-((3-(4-(6-(azetidin-1-yl)-2-methyl-1-oxo-1,2-dihydro-2,7-naphthyridin-4-yl)-2,6-dimethoxybenzoyl)-3-azaspiro[5.5]undecan-9-yl)methyl)-6-oxo-6,8-dihydro-2H,7H-spiro[furo[2,3-e]isoindole-3,4′-piperidin]-7-yl)piperidine-2,6-dione], on BRD9, the Dmax was more than 90% and the DC50 was less than 0.01 µM.

As to `COc1cc(-c2cn(C)c(=O)c(C)c2C)cc(OC)c1C(=O)N1CCC2(CCC(CN3CCC4(CC3)COc3c4ccc4c3C(=O)N(C3CCC(=O)NC3=O)C4=O)CC2)CC1` (stereo not shown) [BRD-2, 1′-((3-(2,6-dimethoxy-4-(1,4,5-trimethyl-6-oxo-1,6-dihydropyridin-3-yl)benzoyl)-3-azaspiro[5.5]undecan-9-yl)methyl)-7-(2,6-dioxopiperidin-3-yl)-7-hydro-2H,6H-spiro[furo[2,3-e]isoindole-3,4′-piperidine]-6,8-dione], on BRD9, the Dmax is more than 90% and the DC50 lay within 0.01 to 0.1 µM.

Take `O=C1CCC(N2Cc3c(ccc4c3OCC43CCNCC3)C2=O)C(=O)N1` (stereo not shown) [Compound B1, 3-(6-oxo-6,8-dihydro-2H,7H-spiro[furo[2,3-e]isoindole-3,4′-piperidin]-7-yl)piperidine-2,6-dione]: the IC50 in experiment [1] was 1 µM.

For the molecule `CC(C)S(=O)(=O)c1ccc(CNC(=O)[C@H](CCC(N)=O)NC(=O)[C@@H]2CC[C@@H]3CCN(C(=O)CCCCN4CCC5(CC4)COc4c5ccc5c4CN([C@H]4CCC(=O)NC4=O)C5=O)C[C@H](NC(=O)c4cc5cc(C(=O)P(=O)(O)O)ccc5[nH]4)C(=O)N32)cc1` [STD 86, (2-(((5S,8S,10aR)-8-(((S)-5-amino-1-((4-(isopropylsulfonyl)benzyl)amino)-1,5-dioxopentan-2-yl)carbamoyl)-3-(5-(7-((S)-2,6-dioxopiperidin-3-yl)-6-oxo-7,8-dihydro-2H,6H-spiro[furo[2,3-e]isoindole-3,4′-piperidin]-1′-yl)pentanoyl)-6-oxodecahydropyrrolo[1,2-a] [1,5]diazocin-5-yl)carbamoyl)-1H-indole-5-carbonyl)phosphonic acid], the IC50 fell in the range of 1 to 10 µM in the experiment on SU-DHL-1 and 0.1 to 1 µM in the experiment with MOLM-16. Also, the DC50 at STAT3 lay within 0.1 to 1 µM. For the same molecule, the Dmax on STAT3 was not below 80%.
